Test results taken from patent publication US20100324017A1, “ACYLGUANIDINE DERIVATIVE” (priority 2007, published 2010).
pKi: −log10 of the molar value.

Key:
[1] = target: T1, human 5-HT5A receptor (Homo sapiens, UniProt P47898); experiment: Test of human 5-HT5A receptor binding inhibition ([3H]5-CT, HEK293 cell membrane); settings: [3H]5-CT binding, membrane of HEK293 cell expressing human 5-HT5A receptor
T1 construct: expressed in transfected cells; membrane preparation
Procedure: An ORF of a human 5-HT5A receptor (Genbank AF498985) was cloned from a human hippocampal cDNA library, and then inserted into a pCR2.1 vector (Invitrogen), and Escherichia coli having the plasmid was mass cultured. Next, the human 5-HT5A receptor full-length cDNA sequence was analyzed, recombined into a pCDNA3.1 vector (Invitrogen) as an expression vector, and mass cultured. A human embryonic kidney-induced cell HEK293 cell (ATCC) was seeded, and the resulting expression plasmid (1 μg) above was added thereto together with LIPOFECTAMINE 2000 (Invitrogen; 2 μl), a gene was introduced into the HEK293 cell, and then Geneticin (G418 sulfate 500 μg/ml; Kanto Chemical Co., Inc.) was used as a drug-resistant marker to screen the expressing cell. Thus prepared gene-expressing recombinant cell was cultured in a D-MEM, 10% FCS, 1% Pc./Sm., 500 μg/ml G418 culture medium for 3 days. This experimental operation was conducted in accordance with a gene operation experiment manual of a known method (Sambrook, J. et al, Molecular Cloning-A Laboratory Manual“, Cold Spring Harabor Laboratory, NY, 1989), etc., an instruction appended in a reagent or the like.
(1) Preparation of a Membrane from an HEK293 Cell Forcibly Expressing a Human 5-HT5A Receptor
An HEK293 cell forcibly expressing a human 5-HT5A receptor was cultured in an F500 plate, and scraped for collection using a scraper. After centrifugation, the precipitates were collected and an incubation buffer (50 mM Tris (HCl) PH 7.4, 10 mM Mg504, 0.5 mM EDTA) was added thereto. After homogenization, it was further centrifuged, an incubation buffer was added to the precipitate, and the mixture was well suspended. These operations were repeatedly conducted, the protein concentration was then measured, and the preparation of a membrane was completed.
(2) Experiment on Human 5-HT5A Receptor Binding Inhibition
The compound to be tested (0.3 to 300 nM) and a 100 μM 5-CT solution in DMSO were added to a 96-well plate at 2 μl/well. The number of the wells to be measured under the same condition in one experiment was set at 2, and an average value thereof was used. It was suspended in an incubation buffer, and a HEK293 cell membrane forcibly expressing a human 5-HT5A receptor that had been prepared at 200 μg/ml was added thereto at 100 μl/well. The mixture was incubated at room temperature for 15 minutes, and a [^3H]5-CT solution (2 nM [^3H]5-CT, an incubation buffer) was then added thereto at 100 μl/well.
Separate from this, 100 μl of the solution was dispersed to a liquid scintillation vial, 2 ml of Aquasol II (registered trademark) was added thereto, followed by stirring, and the radioactivity was then measured with a liquid scintillation counter. The solution was incubated at 37° C. for 60 minutes. The reaction liquid was sucked to a 96-well GF/C filter plate that had been preliminarily treated with 0.2% polyethyleneimine, and washed six times with an ice-cooled 50 mM Tris (pH 7.5) buffer. The GF/C filter plate was dried.
MicroscintTMPS (registered trademark) was added thereto at 40 μl/well. The radioactivity remaining on the GF/C filter plate was measured in a top counter.
For the inhibitory activity for the binding of the [^3H]5-CT by the compound to be tested in each experiment, IC50 value was calculated by taking the radioactivity when only DMSO was added as 0% inhibition, and the radioactivity when 1 μM 5-CT was added as 100% inhibition. Apart from this, a Ki value was calculated from the Kd value of the [^3H]5-CT that had been determined by Scatchard analysis.
Ki=IC50 (1+Concentration of the ligands added/Kd (4.95 nM))

[2] = test system: scopolamine-induced spontaneous alternation behavior disorder; experiment: Scopolamine-induced spontaneous alternation behavior disorder in mice (Y-maze); format: in vivo; settings: mouse, oral, dose 0.003 mg/kg; scopolamine 0.5 mg/kg i.p.
Procedure: (§1) An Improvement Effect for Scopolamine-Induced or MK-801-Induced Spontaneous Alternation Behavior in Mice
(§2) An improvement effect of the compound (I) for cognitive impairment was evaluated by the above-described well-known test method as a model of a short-term learning disorder.
(§3) Species: Male ddY mice/number of animals (number of animals per group): 6 to 10 animals per group
(§4) A mouse was introduced into the laboratory 1 hour before starting the test. The mouse was placed at one end of an arm in a Y-maze having equal lengths of arms in three directions, and was able freely explored for 8 minutes with the number of the entries into the arms were counted. Furthermore, a spontaneous alternation behavior was defined as consecutive entries into each of the three arms, and an alternation rate was defined as the percentage of the number of time of this behavior relative to the total number of the entries, and calculated by the following equation.
Alternation rate (%)=(number of spontaneous alternation behaviors/total number of entries−2)×100.
The compound to be tested was orally administered 50 minutes before the initiation of the test, and 30 minutes later, 0.5 mg/kg of scopolamine or 0.15 mg/kg of MK-801 (in the normal group, physiological saline) was intraperitoneally administered. Furthermore, for the normal group (the group administered with physiological saline) and the control group (the group administered with 0.5 mg/kg scopolamine or 0.15 mg/kg MK-801), a solvent (vehicle) was orally administered when the compound to be tested was administered. For the normal group, physiological saline was intraperitoneally administered when scopolamine was administered.
The alternation rate (%) is expressed as an average value in each group (mean±SE). In regard to the alternation rate (%), in the case where a significant difference between the normal group and the control group (Student's T test) was found, it was considered that there was an establishment of learning disorder by the administration of scopolamine or MK-801. By carrying out the Dunnett evaluation for the group administered with the compound to be tested relative to the control group, the presence or absence of the learning disorder action of the compound to be tested was determined. In each evaluation, it was considered that there was a tendency at p<0.10, and there was a significant difference at p<0.05.

[3] = test system: MK-801-induced spontaneous alternation behavior disorder; experiment: MK-801-induced spontaneous alternation behavior disorder in mice (Y-maze); format: in vivo; settings: mouse, oral, dose 0.003 mg/kg; MK-801 0.15 mg/kg i.p.
Procedure: as §1, §2, §3, §4
Alternation rate (%)=(number of spontaneous alternation behaviors/total number of entries−2)×100. […]
The alternation rate (%) is expressed as an average value in each group (mean±SE). […] By carrying out the Dunnett evaluation for the group administered with the compound to be tested relative to the control group, the presence or absence of the learning disorder action of the compound to be tested was determined. […]

[4] = test system: water maze learning disorders in old rats; experiment: Water maze learning disorders in old rats; format: in vivo, rat
Procedure: Evaluation of a Drug for Water Maze Learning Disorders in Old Rats
The improvement effect of the compound (I) for dementia was evaluated by a known water maze learning disorder model used as a pathophysiology model.
Specifically, it was evaluated in accordance with the method as described in “J Pharmacol Exp Ther, 1996; 279: 1157-73, Yamazaki M. et al.”.

T1 sequence (P47898 whole entry): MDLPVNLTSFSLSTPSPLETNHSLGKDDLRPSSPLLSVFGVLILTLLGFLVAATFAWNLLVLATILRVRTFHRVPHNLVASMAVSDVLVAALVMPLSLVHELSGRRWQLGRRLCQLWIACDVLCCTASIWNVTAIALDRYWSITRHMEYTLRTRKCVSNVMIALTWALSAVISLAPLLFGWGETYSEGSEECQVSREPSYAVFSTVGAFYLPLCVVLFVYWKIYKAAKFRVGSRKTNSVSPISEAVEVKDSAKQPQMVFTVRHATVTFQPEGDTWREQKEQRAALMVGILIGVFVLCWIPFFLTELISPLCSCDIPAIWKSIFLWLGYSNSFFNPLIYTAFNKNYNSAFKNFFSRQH

SMILES | pKi [1] | inhibition of scopolamine-induced spontaneous alternation behavior disorder [2] | improvement of MK-801-induced spontaneous alternation behavior disorder [3] | improvement of water maze learning disorders in old rats ([4]; dose 0.01 mg/kg) | improvement of water maze learning disorders in old rats ([4]; dose 0.03 mg/kg)
CC(C)n1c2cc(C(=O)N=C(N)N)ccc2c2c(CO)cccc21 [Example 65] | ≥ 7.30 | significantly inhibited |  |  | 
NC(N)=NC(=O)c1ccc2c3ccccc3n(C3CCOCC3)c2c1 [Example 25] | 9.29 | significantly inhibited | significantly improved | significantly improved | significantly improved
